# Experiments:
# Type in all cases: cell-based, Saccharomyces cerevisiae
# [1] = system: active dry yeast “z”; experiment: Fermentation of very high gravity corn mash with nutrient supplements (Example 4)
# Procedure: The effects of the optimized defined urea plus salts-based nutrient supplement, i.e., defined yeast food, developed in Example 3 for corn mash fermentations, were assessed by comparisons of fermentation rates and ethanol production in normal gravity corn mashes and very high gravity corn mashes that were (a) supplemented with 16 mM urea only, or (b) yeast extract, or (c) supplemented with 16 mM urea plus the defined yeast food from Example 3 which in this set of studies, contained 1.6 g/L (NH4)2HPO4, 0.32 g/L (NH4)2SO4, 0.049 g/L MgSO4.7H2O, and 0.273 mg/L ZnSO4.7H2O.
# Normal density corn mashes were prepared as described in Example 1 and were determined to contain about 18-20 g dissolved solids per 100 mL mash as determined by density meter analysis. […] The mash thus prepared contained 30-32 g of dissolved solids/100 mL as determined by density meter analysis. […]
# Each study was commenced by removing fermentors containing either normal gravity corn mash or very high gravity corn mash from 4° C. storage, connecting them to 30° C. water bath circulators and continually mixing the corn mash contents therein until the temperature of each mash was 30° C. […] Fermentation performance in all treatments was assessed by repeated sampling and analyses of the mashes during the fermentation periods as described in Example 1.
# [2] = system: active dry yeast “w”; experiment: Fermentation performance of commercial active dry yeasts in normal gravity corn mash; settings: strain “w”
# Procedure: (§1) The effects of the defined urea plus salts-based yeast food on fermentation performance of seven commercial active dry yeasts currently used by the fuel alcohol industry (Bellisimi et al., 2005, Am. Soc. Brew. Chem. J. Vol. 63, pp. 107-112) and designated herein as strains “b”, “d”, “e”, “w”, “x”, “y”, and “z”, were assessed in normal gravity corn mash prepared as described in Example 1. The commercial active dry yeasts were assessed with the following corn mash supplanted as follows: (a) 8 mM urea (control), or (b) 1% yeast extract, or (c) 8 mM urea supplemented with the defined urea plus salts yeast food of the present invention. The fermentation methods were followed as outlined in Example 4. Fermentation rates were determined by repeated sampling and sample processing at specific time intervals as described in Example 1.
# [3] = system: active dry yeast “b”; experiment: as above; settings: strain “b”
# Procedure: as §1
# [4] = system: active dry yeast “x”; experiment: as above; settings: strain “x”
# Procedure: as §1
# [5] = system: active dry yeast “e”; experiment: as above; settings: strain “e”
# Procedure: as §1
# [6] = system: active dry yeast “y”; experiment: as above; settings: strain “y”
# Procedure: as §1
# [7] = system: active dry yeast “z”; experiment: as above; settings: strain “z”
# Procedure: as §1
# [8] = system: active dry yeast “d”; experiment: as above; settings: strain “d”
# Procedure: as §1
# [9] = complete disappearance of 20 g of dissolved solids/100 mL
smiles,measurement,setting,value
NC(N)=O [urea],time after which fermentation became “stuck”,[1],72 h
same,Fermentation rate,[2]; normal gravity corn mash,0.82 ± 0.02 g/100 mL/hr
same,Fermentation time,[2]; [9],48 h
same,Fermentation rate,[3]; normal gravity corn mash,0.73 ± 0.04 g/100 mL/hr
same,Fermentation time,[3]; [9],72 h
same,Fermentation rate,[4]; normal gravity corn mash,0.80 ± 0.06 g/100 mL/hr
same,Fermentation time,[4]; [9],48 h
same,Fermentation rate,[5]; normal gravity corn mash,0.67 ± 0.01 g/100 mL/hr
same,Fermentation time,[5]; [9],72 h
same,Fermentation rate,[6]; normal gravity corn mash,0.83 ± 0.01 g/100 mL/hr
same,Fermentation time,[6]; [9],48 h
same,Fermentation rate,[7]; normal gravity corn mash,0.79 ± 0.01 g/100 mL/hr
same,Fermentation time,[7]; [9],48 h
same,Fermentation rate,[8]; normal gravity corn mash,0.74 ± 0.03 g/100 mL/hr
same,Fermentation time,[8]; [9],48 h
